Results on 27 compounds are retold here after US9896445B2, “Heterocyclic inhibitors of ERK1 and ERK2 and their use in the treatment of cancer” (Asana Biosciences, LLC, priority 2015, dated 2018).

Test [1] addresses T1, ERK2 (Homo sapiens, UniProt P28482).
T1 construct: purchased Jubilant Biosys
As to the kind of experiment: ERK2 HTRF (biochemical) assay. As to conditions: HTRF. A digest of the protocol: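 Readout was time-resolved FRET between europium anti-phospho-MBP and streptavidin-APC after a 60-min room-temperature kinase step. That step used ERK2 (25 nM in enzyme mix), biotinylated MBP peptide (1 uM) and ATP (24 uM) from the substrate mix, in pH 7.5 Tris buffer.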
On the technique in general: In TR-FRET formats the signal depends on donor and acceptor labels being close together.

The target of test [2] is T2, ERK1 (Homo sapiens, UniProt P27361).
T2 construct: purchased Jubilant Biosys
As to the kind of experiment: ERK1 HTRF (biochemical) assay. As to conditions: HTRF. As to the method: ERK1 and ERK2 HTRF (Biochemical) Assays
These assays employed a homogeneous time resolved fluorescence (HTRF) technique. […] The plate was incubated at room temperature for 60 min with shaking. […] The IC50 values (half maximal inhibitory concentration values) were subsequently determined using a sigmoidal dose-response curve (variable slope) in GraphPad Prism® 5 software.

Bounds are passed on as bounds.

T2 sequence (P27361 whole entry): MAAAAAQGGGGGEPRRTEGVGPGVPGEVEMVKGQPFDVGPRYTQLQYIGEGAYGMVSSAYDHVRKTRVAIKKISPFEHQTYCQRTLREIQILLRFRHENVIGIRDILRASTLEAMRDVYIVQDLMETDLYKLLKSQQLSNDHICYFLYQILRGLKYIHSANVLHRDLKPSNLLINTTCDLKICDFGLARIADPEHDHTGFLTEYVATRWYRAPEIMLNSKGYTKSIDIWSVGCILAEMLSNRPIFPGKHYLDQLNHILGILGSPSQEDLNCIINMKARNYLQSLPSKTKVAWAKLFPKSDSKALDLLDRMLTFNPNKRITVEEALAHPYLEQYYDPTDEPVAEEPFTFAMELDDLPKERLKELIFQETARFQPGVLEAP
T1 sequence (P28482 whole entry): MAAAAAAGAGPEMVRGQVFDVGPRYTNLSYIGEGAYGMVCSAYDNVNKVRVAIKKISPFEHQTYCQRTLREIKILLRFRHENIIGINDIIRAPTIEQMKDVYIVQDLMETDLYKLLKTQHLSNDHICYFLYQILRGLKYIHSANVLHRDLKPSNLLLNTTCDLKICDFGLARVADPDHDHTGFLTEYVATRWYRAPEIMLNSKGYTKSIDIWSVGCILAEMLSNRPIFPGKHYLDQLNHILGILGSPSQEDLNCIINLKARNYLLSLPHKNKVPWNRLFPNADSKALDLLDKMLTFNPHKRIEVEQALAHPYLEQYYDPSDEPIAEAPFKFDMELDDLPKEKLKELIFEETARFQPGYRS

As a reminder, the IC50 is the concentration that inhibits the measured activity by half. Low readings indicate greater potency, high ones weaker potency. With `CC[C@@H](CO)Nc1ncc(C)c(-n2ccc(C(=O)NC(CO)c3ccccc3)c2)n1` (stereo partly drawn) [Compound 75, N-(2-hydroxy-1-phenylethyl)-1-(2-(((S)-1-hydroxy-butan-2-yl)amino)-5-methylpyrimidin-4-yl)-1H-pyrrole-3-carboxamide], the IC50 in test [1] is not above 50 nM; in test [2], less than 50 nM.
For `O=C(NC(CO)c1ccccc1)c1ccn(-c2ccnc(Nc3ccc4c(c3)OCO4)c2)c1` (stereo not drawn) [Compound 76, 1-(2-(benzo[d][1,3]dioxol-5-ylamino)pyridin-4-yl)-N-(2-hydroxy-1-phenylethyl)-1H-pyrrole-3-carboxamide], the IC50 is not above 50 nM in test [1] and less than 50 nM in test [2].
In the case of `Cc1cnc(Nc2ccc(F)cc2Cl)cc1-n1ccc(C(=O)NC(CO)c2ccccc2)c1` (stereo not drawn) [Compound 78, 1-(2-((2-chloro-4-fluorophenyl)amino)-5-methylpyridin-4-yl)-N-(2-hydroxy-1-phenylethyl)-1H-pyrrole-3-carboxamide], the IC50 was not above 50 nM in test [1] and less than 50 nM in test [2].
Taken in the same sequence, the figures for `Cc1cnc(Nc2ccc3occc3c2)cc1-n1ccc(C(=O)NC(CO)c2ccccc2)c1` (stereo not drawn) [Compound 79, 1-(2-(benzofuran-5-ylamino)-5-methylpyridin-4-yl)-N-(2-hydroxy-1-phenylethyl)-1H-pyrrole-3-carboxamide] were not above 50 nM and 100 to 500 nM.
For `Cc1cnc(Nc2ccc3c(c2)OC(F)(F)O3)cc1-n1ccc(C(=O)NC(CO)c2ccccc2)c1` (stereo not drawn) [Compound 80, 1-(2-((2,2-difluorobenzo[d] [1,3]dioxol-5-yl)-amino)-5-methyl-pyridin-4-yl)-N-(2-hydroxy-1-phenyl-ethyl)-1H-pyrrole-3-carboxamide] the same measures were not above 50 nM and less than 50 nM.
For the compound `Cc1cnc(Nc2cccnc2)cc1-n1ccc(C(=O)NC(CO)c2ccccc2)c1` (stereo not drawn) [Compound 81, N-(2-hydroxy-1-phenylethyl)-1-(5-methyl-2-(pyridin-3-ylamino)pyridin-4-yl)-1H-pyrrole-3-carboxamide], the IC50 in test [1] is not above 50 nM; in test [2], less than 50 nM.
`O=C(NC(CO)c1ccccc1)c1ccn(-c2ccnc(Nc3ccc(F)cc3Cl)c2)c1` (stereo not drawn) [Compound 82, 1-(2-((2-chloro-4-fluorophenyl)amino)pyridin-4-yl)-N-(2-hydroxy-1-phenylethyl)-1H-pyrrole-3-carboxamide]: the half-maximal inhibitory concentration (IC50) is not above 50 nM in test [1] and 50 to 100 nM in test [2].
On to `Cc1cnc(Nc2ccc(N3CCNCC3)cc2)cc1-n1ccc(C(=O)NC(CO)c2ccccc2)c1` (stereo not drawn) [Compound 83, N-(2-hydroxy-1-phenylethyl)-1-(5-methyl-2-((4-(piperazin-1-yl)-phenyl)amino)-pyridin-4-yl)-1H-pyrrole-3-carboxamide], for which the IC50 is not above 50 nM in test [1] and 100 to 500 nM in test [2].
Regarding `O=C(NC(CO)c1ccccc1)c1ccn(-c2ccnc(Nc3ccc(F)cc3)c2)c1` (stereo not drawn) [Compound 84, 1-(2-((4-fluoro-phenyl)amino)pyridin-4-yl)-N-(2-hydroxy-1-phenyl-ethyl)-1H-pyrrole-3-carboxamide], the IC50 was not above 50 nM in test [1] and less than 50 nM in test [2].
For `Cc1cnc(Nc2ccc(F)cc2Cl)cc1-n1cnc(C(=O)NC(CO)c2ccccc2)c1` (stereo not drawn) [Compound 85, 1-(2-((2-chloro-4-fluorophenyl)amino)-5-methylpyridin-4-yl)-N-(2-hydroxy-1-phenylethyl)-1H-imidazole-4-carboxamide] the same measures were 100 to 500 nM and 100 to 500 nM.
Taken in the same sequence, the figures for `Cc1cnc(Nc2ccc3c(c2)OCO3)nc1-n1ccc(C(=O)N[C@H](CO)c2ccc(F)c(Cl)c2)c1` [Compound 87] were not above 50 nM and less than 50 nM.
For `Cc1cnc(Nc2ccc3c(c2)OCO3)cc1-n1cnc(C(=O)NC(CO)c2cccc(Cl)c2)c1` (stereo not drawn) [Compound 88, 1-(2-(benzo[d][1,3]dioxol-5-ylamino)-5-methylpyridin-4-yl)-N-(1-(3-chloro-phenyl)-2-hydroxy-ethyl)-1H-imidazole-4-carboxamide] the same measures were not above 50 nM and less than 50 nM.
In the case of `Cc1cnc(Nc2ccccc2)cc1-n1cnc(C(=O)NC(CO)c2ccccc2)c1` (stereo not drawn) [Compound 89, N-(2-hydroxy-1-phenylethyl)-1-(5-methyl-2-(phenyl-amino)pyridin-4-yl)-1H-imidazole-4-carboxamide], the half-maximal inhibitory concentration (IC50) in test [1] is not above 50 nM; in test [2], 100 to 500 nM.
Consider `Cc1cnc(Nc2ccc3c(c2)OC(F)(F)O3)cc1-n1cnc(C(=O)NC(CO)c2cccc(Cl)c2)c1` (stereo not drawn) [Compound 90, N-(1-(3-chlorophenyl)-2-hydroxyethyl)-1-(2-((2,2-difluoro-benzo[d][1,3]dioxol-5-yl)amino)-5-methylpyridin-4-yl)-1H-imidazole-4-carboxamide], for which the IC50 in test [1] is not above 50 nM; in test [2], 100 to 500 nM.
As to `Cc1cnc(Nc2ccc(F)cc2Cl)cc1-n1ccc(C(=O)NC(CO)c2cccc(Cl)c2)c1` (stereo not drawn) [Compound 91, 1-(2-((2-chloro-4-fluorophenyl)amino)-5-methylpyridin-4-yl)-N-(1-(3-chlorophenyl)-2-hydroxyethyl)-1H-pyrrole-3-carboxamide], the IC50 in test [1] was not above 50 nM; in test [2], less than 50 nM.
For `Cc1cnc(Nc2ccc3c(c2)OC(F)(F)O3)cc1-n1ccc(C(=O)NC(CO)c2cccc(Cl)c2)c1` (stereo not drawn) [Compound 92, N-(1-(3-chlorophenyl)-2-hydroxyethyl)-1-(2-((2,2-difluoro-benzo[d][1,3]dioxol-5-yl)amino)-5-methylpyridin-4-yl)-1H-pyrrole-3-carboxamide] the same measures were not above 50 nM and less than 50 nM.
On to `Cc1cnc(NC2CCOCC2)nc1-n1cnc(C(=O)NCc2cccc(Cl)c2CO)c1` [Compound 93, N-(3-chloro-2-(hydroxymethyl)benzyl)-1-(5-methyl-2-((tetrahydro-2H-pyran-4-yl)amino)pyrimidin-4-yl)-1H-imidazole-4-carboxamide], for which the results for the IC50 in test [1] and in test [2] were not above 50 nM and less than 50 nM, respectively.
Taken in the same sequence, the figures for `Cc1cnc(NC2CCOCC2)nc1-n1cnc(C(=O)NCc2ccccc2CCO)c1` [Compound 94, N-(2-(2-hydroxyethyl)benzyl)-1-(5-methyl-2-((tetrahydro-2H-pyran-4-yl)amino)pyrimidin-4-yl)-1H-imidazole-4-carboxamide] were not above 50 nM and less than 50 nM.
Consider `Cc1cnc(Nc2ccc3c(c2)OC(C)(C)O3)nc1-n1ccc(C(=O)NC(CO)c2ccccc2)c1` (stereo not drawn) [Compound 95, 1-(2-((2,2-dimethylbenzo[d] [1,3]dioxol-5-yl)-amino)-5-methyl-pyrimidin-4-yl)-N-(2-hydroxy-1-phenylethyl)-1H-pyrrole-3-carboxamide], for which the half-inhibitory concentration (IC50) in test [1] is not above 50 nM; in test [2] it was 50 to 100 nM.
As to `Cc1cnc(Nc2ccc3c(c2)OC(C)(C)O3)nc1-n1ccc(C(=O)NC(CO)c2cccc(Cl)c2)c1` (stereo not drawn) [Compound 96, N-(1-(3-chloro-phenyl)-2-hydroxyethyl)-1-(2-((2,2-dimethyl-benzo[d][1,3]dioxol-5-yl)amino)-5-methylpyrimidin-4-yl)-1H-pyrrole-3-carboxamide], the results for the IC50 in test [1] and in test [2] were not above 50 nM and less than 50 nM, respectively.
Taken in the same sequence, the figures for `Cc1cnc(Nc2ccc(F)cc2)cc1-n1ccc(C(=O)NC(CN)c2ccccc2)c1` (stereo not drawn) [Compound 98, N-(2-amino-1-phenylethyl)-1-(2-((4-fluorophenyl)-amino)-5-methyl-pyridin-4-yl)-1H-pyrrole-3-carboxamide] were not above 50 nM and less than 50 nM.
With `Cc1cnc(Nc2ccc3c(c2)OC(F)(F)O3)cc1-n1cnc(C(=O)NC(CN)Cc2ccccc2)c1` (stereo not drawn) [Compound 99, N-(1-amino-3-phenylpropan-2-yl)-1-(2-((2,2-difluorobenzo[d] [1,3]dioxol-5-yl)amino)-5-methylpyridin-4-yl)-1H-imidazole-4-carboxamide], the IC50 in test [1] and in test [2] was 100 to 500 nM each time.
`CC[C@@H](CO)Nc1cc(-n2ccc(C(=O)NC(CO)c3ccccc3)c2)c(C)cn1` (stereo partly drawn) [Compound 100, N-(2-hydroxy-1-phenylethyl)-1-(2-(((S)-1-hydroxy-butan-2-yl)amino)-5-methylpyridin-4-yl)-1H-pyrrole-3-carboxamide]: the figures for the half-maximal inhibitory concentration (IC50) in test [1] and in test [2] were not above 50 nM and 50 to 100 nM, respectively.
Taken in the same sequence, the figures for `Cc1cnc(Nc2cc3c(cc2Cl)OCO3)nc1-n1ccc(C(=O)NC(CO)c2cccc(Cl)c2)c1` (stereo not drawn) [Compound 101, 1-(2-((6-chloro-benzo[d][1,3]dioxol-5-yl)amino)-5-methylpyrimidin-4-yl)-N-(1-(3-chlorophenyl)-2-hydroxyethyl)-1H-pyrrole-3-carboxamide] were not above 50 nM and less than 50 nM.
Taken in the same sequence, the figures for `Cc1cnc(Nc2ccc3c(c2)OCO3)nc1-n1ccc(C(=O)NC(CO)c2cccnc2)c1` (stereo not drawn) [Compound 103, 1-(2-(benzo[d][1,3]dioxol-5-ylamino)-5-methylpyrimidin-4-yl)-N-(2-hydroxy-1-(pyridin-3-yl)ethyl)-1H-pyrrole-3-carboxamide] were not above 50 nM and 100 to 500 nM.
For `O=C(NC(CO)c1cccc(Cl)c1)c1cn(-c2cc(Nc3ccccc3)ncc2Cl)cn1` (stereo not drawn) [Compound 106, 1-(5-Chloro-2-(phenylamino)pyridin-4-yl)-N-(1-(3-chlorophenyl)-2-hydroxyethyl)-1H-imidazole-4-carboxamide] the same measures were not above 50 nM and less than 50 nM.
With `Cc1cn(-c2nc(Nc3ccc(F)cc3)ncc2C)cc1C(=O)NC(CO)c1cccc(Cl)c1` (stereo not drawn) [Compound 107, N-(1-(3-chlorophenyl)-2-hydroxyethyl)-1-(2-((4-fluoro-phenyl)amino)-5-methylpyrimidin-4-yl)-4-methyl-1H-pyrrole-3-carboxamide], the IC50 is not above 50 nM in test [1] and less than 50 nM in test [2].
